Several values for one entry are separate records, joined by “and”; a condition that tells them apart may be missing. Equal values may be shown once. Read-outs that look alike come from different tables or passages of the source.
How the values were obtained:
[1] = cited from earlier work
[2] = NMRD profile / relaxometric measurements (1H longitudinal relaxivity, incl. temperature and pH dependence); format: physicochemical; settings: for R1p: 20 MHz and 25° C.; for relaxivity (NMRD profile): 20 MHz, 7.2 pH and 25° C.; for rGdH / Δ^2 / τr / τv: fitting parameter, NMRD profile
Excerpt: Relaxivity is used to describe the efficiency of a paramagnetic substance in increasing the water longitudinal relaxation rate. NMRD profiling is a direct method of measuring the proton relaxivity, and in principle it is sensitive to all of the parameters that influence relaxivity. It is the nuclear relaxation rate (1/T1) as a function of the Larmor frequency or the magnetic field, and describes the excess longitudinal proton relaxation that is caused by the presence of contrast agents as a function of the magnetic field using a field-cycling technique. The NMRD profile can probe the relaxivity mechanisms and understand how changes in the chemical structure of the complex interfere with them. The change in experimental parameters such as temperature and pressure influences the physical or chemical state of the sample, but the variation of the magnetic field has no influence on the chemistry of the sample. Thus, NMRD is a useful technique in the understanding of the numerous physiochemical parameters that determine the field dependence of proton relaxivities. The innersphere, outersphere, and second sphere contribute to the overall relaxivity and are influenced by numerous parameters, which are too complex to be well-defined by a single NMRD study; usually, reference to independent ^17O NMR relaxation rates and chemical shift is made. By the equations 2-7, several parameters that are related to the outersphere, and innersphere relaxation, such as the hydration number q, the τm, τR, τv, Δ^2, and rGdH, can be estimated.
As shown in FIGS. 5-8, all complexes have one innersphere water molecule. At low field, the electronic relaxation dominates the dipole-dipole correlation time for innersphere relaxivity and results in the first dispersion at around a […] proton Larmor frequency, while at high field, rotation relaxation dominates and the dispersion is at around 30 MHz. The higher relaxivity as compared to the clinical agents is postulated to the longer reorientational correlation time τR and the shorter rGdH. Relaxivity has a dependence on the τR at 20 MHz, which is determined by the molecular dimension.
The temperature and pH dependence of the longitudinal relaxivity were measured to study the tolerance of the complex under different physiological conditions (see FIGS. 9-10). At the low temperature under the slow exchange rate (τm>>T1M) a relatively longer τm is insignificant. The innersphere quenching is not severed and is not dominated by the outersphere mechanism at 273-278 K. Beyond 278 K the innersphere contribution increases up to 288 K. This is the τm≈T1M region, where the onset of the innersphere and the slow water exchange is not interfered with. From 288 K to 330 K, there is a gradual drop in the relaxivity due to the increase in D and T1M which causes both the innersphere and outersphere relaxivities to fall under the fast exchange condition (τm<<T1M). The relaxivity is 4.93 mM^−1s^−1at physiological temperature. […] The structural arrangement around the metal centre is not severely distorted, which allows a high stability against different pH.
NMRD profiles measure the longitudinal water proton relaxation rate as a function of magnetic fields. Measurements were performed by a Spinmaster FFC fast field cycling NMR relaxometer that covered a continuum of magnetic fields from 0.00024 to 0.47 T. The temperature was controlled by circulating Freon from an external bath and measured by a thermometer that was inserted into the Freon close to the sample. The relaxometer worked under complete control with the reproducibility of the measured T1 values estimated to be ±2%. The NMRD profiles were acquired for a 1-2 mM solution of the complex. Xylenol orange test was employed to check the absence of free Gd(III).

[3] = Variable-temperature 17O NMR transverse relaxation (water exchange); format: physicochemical; settings: for τm: fitting parameter, 17O transverse relaxivity study
Description: Further investigation into the transverse relaxivity changes against temperature as shown in FIG. 6 was performed to determine the exchange rate. The maximum appears at a lower temperature, which implies a faster water exchange rate. The water exchange rates of the discussed ligands are in the order of Gd-BOPTA (kex=5.0×10^6)>Gd-DTPA (kex=4.0×10^6)>Gd-DOTA (kex=3.3×10^6)>GdL (kex=1.1×10^6). As anionic complexes promote water exchange, the first three complexes are anionic species with faster water exchange rates. GdL is neutral with a lower exchange rate, but with a lower osmolality, and importantly, the highest relaxivity.
Variable-temperature ^17O NMR measurements were recorded on a JEOL EX-90 (2.1 T) spectrometer that was equipped with a 5 mm probe, using D2O for external lock of the magnetic field. Experimental settings were spectral width 10000 Hz, pulse width 7 μs, acquisition time 10 ms, 1000 scans, and no sample spinning. The solution used contained ^17O enriched water (2.6%, Yeda, Israel). The observed transverse relaxation rate (R^O2obs) was calculated from the line width of the resonance at half height (Δν1/2): R^O2obs=πΔν1/2.

[4] = tested on: non-tumorigenic immortalized liver cell line (MIHA); experiment: Hepatocellular uptake (ICP-MS of Gd per cell); format: cell-based
Description: The non-tumorigenic immortalized liver cell line (MIHA) was grown and incubated in different concentrations of GdL and Gd-BOPTA. The mole of gadolinium uptake per cell under different concentrations of GdL incubation is presented as a function of concentration in FIG. 16. […] The average increase is 7.2×10^−13 mole of Gd per cell (about 1.97 times more than Gd-BOPTA) and the maximum uptake is 3.1×10^−12 mol of Gd per cell at 5 mM. There was no gadolinium ion found in the control experiments in the absence of GdL. The uptake varied slightly at the incubation concentration of less than 0.5 mM and linearly when the concentration increases from 0.5 to 5 mM. […]
The non-tumorigenic immortalized liver cell line (MIHA) (kindly provided by Dr J. R. Chowdhury at the Albert Einstein College of Medicine, New York) was grown in a 96-well plate (polystyrene, flat bottom tissue-culture treated, black with clear bottom) with Dulbecco's modified Eagle's medium (DMEM with 4 mM L-glutamine modified to contain 4.5 g l^−1 glucose and 1.5 g l^−1 sodium bicarbonate) containing 10% Bovine Calf Serum (BCS) in a 5% carbon dioxide incubator. […] The cells were exposed to 100 μl of 0.25% trypsin and harvested, then counted by hemacytometer. […] The samples were analyzed by Agilent 7500a ICP-MS with ICP-MS Top installed.

liver [5] = settings: Schima et al., J. Magn. Res. Imaging 1999; cited from earlier work
hepatocytes [6] = settings: cited from earlier work
hepatocytes [7] = settings: cited from earlier work; remark: listed apart in the source
[8] = versus 0.29 osmol kg^−1 of body fluid; cited from earlier work
liver [9] = settings: 0.1 mmol kg^−1 dose, intravenous bolus; cited from earlier work
rats = settings: cited from earlier work
[10] = 20 MHz, temperature in parentheses: 40

SMILES: CC(O)CN1CCN(CC(=O)[O-])CCN(CC(=O)[O-])CCN(CC(=O)[O-])CC1.[Gd+3] (stereo not shown) [Gd-HP-DO3A, gadoteridol]
- Relaxivity [1, 10]: 3.70 (40) mM^−1 s^−1

SMILES: CNC[C@H](O)[C@@H](O)[C@H](O)[C@H](O)CO.O=C([O-])CN1CCN(CC(=O)[O-])CCN(CC(=O)O)CCN(CC(=O)[O-])CC1.[Gd+3] [Gd-DOTA, gadoterate meglumine]
- R1p [2]: 4.73 mM⁻¹ s⁻¹
- relaxivity (NMRD profile) [2]: 4.73 mM⁻¹ s⁻¹
- rGdH [2]: 3.10 Å
- Δ^2 [2]: 1.3 E19 s^−1
- τr [2]: 73 ps
- τv [2]: 7.7 ps
- water exchange rate kex [3]: 3.3×10^6
- τm [3]: 300 ns
- Relaxivity ([1]; 20 MHz and 25° C.): 4.73 mM⁻¹ s⁻¹

SMILES: CNC[C@H](O)[C@@H](O)[C@H](O)[C@H](O)CO.CNC[C@H](O)[C@@H](O)[C@H](O)[C@H](O)CO.O=C([O-])CN(CCN(CC(=O)[O-])CC(=O)O)CCN(CC(=O)O)C(COCc1ccccc1)C(=O)[O-].[Gd+3] (stereo not shown) [Gd-BOPTA, gadobenate dimeglumine]
- R1p [2]: 5.20 mM⁻¹ s⁻¹
- relaxivity (NMRD profile) [2]: 5.20 mM⁻¹ s⁻¹
- rGdH [2]: 2.96 Å
- Δ^2 [2]: 4.2 E19 s^−1
- τr [2]: 88 ps
- τv [2]: 26 ps
- water exchange rate kex [3]: 5.0×10^6
- τm [3]: 200 ns
- dose dependence of uptake [4]: not significant
- Relaxivity ([1]; 20 MHz and 25° C.): 5.2 mM⁻¹ s⁻¹ and 5.20 mM⁻¹ s⁻¹
- hepatic intensity enhancement (liver [5]): 55%
- percentage of contrast agent excreted (hepatocytes [6]; humans, intravenous injection): over 95%
- hepatic (hepatocellular) uptake (hepatocytes [6]; humans): 3-5 % of the injected dose
- hepatocellular uptake (hepatocytes [7]; rats): 38.6%

SMILES: CCOc1ccc(C[C@@H](CN(CCN(CC(=O)[O-])CC(=O)[O-])CC(=O)[O-])N(CC(=O)[O-])CC(=O)[O-])cc1.[Gd+3].[Na+].[Na+] [Gd-EOB-DTPA]
- hepatic (hepatocellular) uptake (hepatocytes [6]; in vivo): 50 % of the injected dose
- hepatocellular uptake (hepatocytes [7]; rat, in vivo): 70%

SMILES: CNC[C@H](O)[C@@H](O)[C@H](O)[C@H](O)CO.CNC[C@H](O)[C@@H](O)[C@H](O)[C@H](O)CO.O=C([O-])CN(CCN(CC(=O)[O-])CC(=O)O)CCN(CC(=O)[O-])CC(=O)O.[Gd+3] [Gd-DTPA, gadopentetate dimeglumine]
- R1p [2]: 4.69 mM⁻¹ s⁻¹
- rGdH [2]: 3.10 Å
- Δ^2 [2]: 4.2 E19 s^−1
- τr [2]: 73 ps
- τv [2]: 20 ps
- water exchange rate kex [3]: 4.0×10^6
- τm [3]: 250 ns
- Relaxivity ([1]; 20 MHz and 25° C.): 4.69 mM⁻¹ s⁻¹
- osmolality [8]: 1.96 osmol kg^−1
- tolerance (liver [9]): good tolerance

SMILES: COCCNC(=O)CN(CCN(CCN(CC(=O)[O-])CC(=O)NCCOC)CC(=O)[O-])CC(=O)[O-].[Gd+3] [Gd-BMEA, gadoversetamide]
- Relaxivity [1, 10]: 4.70 (40) mM^−1 s^−1

SMILES: [Gd+3] [Gd(III) aqua ion]
- LD50 (rats): 0.1 to 0.2 mmol/kg

SMILES: O=C([O-])CN1CCN(CC(=O)[O-])CCN([C@H](CO)[C@H](O)CO)CCN(CC(=O)[O-])CC1.[Gd+3] (racemic) [Gd-DO3A-butrol, gadobutrol]
- Relaxivity [1, 10]: 3.60 (40) mM^−1 s^−1

SMILES: CNC(=O)CN(CCN(CCN(CC(=O)[O-])CC(=O)NC)CC(=O)[O-])CC(=O)[O-].[Gd+3] [Gd-BMA, gadodiamide]
- Relaxivity ([1]; 20 MHz and 25° C.): 4.39 mM⁻¹ s⁻¹

From US7767196B2, “Optimized relaxivity and specificity hepatobiliary MRI contrast agent” (priority 2005, dated 2010)
